Read-outs that look alike come from different tables or passages of the source.
Key:
ST88 cells [1] = details: ST88 cells (NF1+/−); cited from earlier work
NF90 cells = NF90 cells (NF1+/−); cited from earlier work
[2] = system: phospho-MEK in ST88 cells; assay: phospho-MEK ELISA in ST88 cells; format: cell-based
Text: (§1) The ST88 cell line (NF1^+/−) contains elevated levels of Ras-GTP and is often used as a pre-clinical model for NF1. […] Pathway inhibition and anti-proliferative activity of RAF265 in ST88 cells.

[3] = system: phospho-ERK in ST88 cells; assay: phospho-ERK ELISA in ST88 cells; format: cell-based
Text: as §1

ST88 cells [4] = assay: Proliferation of ST88 cells; format: cell-based
Text: as §1

[5] = system: VEGF-induced angiogenesis in Matrigel plug; assay: VEGF-CHO Matrigel plug angiogenesis model in mice (hemoglobin, Drabkin's reagent); format: in vivo; details: treated days 1 and 4, plugs excised day 5
Text: Due to the inhibition of VEGFR-2, RAF265 also has anti-angiogenic activity which may also provide a therapeutic benefit in treating neurofibromas. To confirm that RAF265 inhibits the growth of new blood vessels (i.e., angiogenesis) in vivo, mice were implanted with Matrigel® containing Chinese hamster ovary cells (CHO) overexpressing VEGF and then treated mice with a dose range of RAF265 or a vehicle control (days 1 and 4). In this model, VEGF expressed from the CHO cells induces angiogenesis within the Matrigel® plug. Plugs are excised on day 5 and assayed for hemoglobin using Drabkin's reagent, as a measure of the degree of angiogenesis.

Compound | effect on proliferation (in words) (ST88 cells [1]) | levels of phospho-ERK (in words) (ST88 cells [1]) | effect on proliferation (in words) (NF90 cells) | levels of phospho-ERK (in words) (NF90 cells) | levels of phospho-MEK after treatment (in words) ([2]; ST88 cells) | EC50 ([2]; ST88 cells (NF1+/−)) [nM] | levels of phospho-ERK after treatment (in words) ([3]; ST88 cells) | EC50 ([3]; ST88 cells (NF1+/−)) [nM] | effect on proliferation (in words) (ST88 cells [4]; ST88 cells) | EC50 (ST88 cells [4]; ST88 cells (NF1+/−)) [nM] | dose giving maximal suppression of hemoglobin content [5] [mg/kg] | hemoglobin content of Matrigel plug (in words) [5]
O=C(NOCC1CC1)c1ccc(F)c(F)c1Nc1ccc(I)cc1Cl [CI-1040] | inhibited proliferation | decreased levels of phospho-ERK | inhibited proliferation | decreased levels of phospho-ERK |  |  |  |  |  |  |  | 
Cn1c(Nc2ccc(C(F)(F)F)cc2)nc2cc(Oc3ccnc(-c4ncc(C(F)(F)F)[nH]4)c3)ccc21 [Example 1] |  |  |  |  | decreased levels | 150 | decreased levels | 185 | inhibition of proliferation | 207 | 50 | dose-dependent decrease

Reference: patent US20110092546A1, “SUBSTITUTED BENZIMIDAZOLES FOR NEUROFIBROMATOSIS” (NOVARTIS AG, priority 2008, published 2011)
